{"source": "patent US20140343000A1", "about": "(priority 2011, published 2014)"}
{"tested_on": "recombinant NL4-3 virus (Renilla luciferase in nef, Gag P373S; NLRluc) in MT-2 cells", "assay": "whole plant or invertebrate", "format": "cell-based, HIV", "conditions": "Renilla, NL43, luciferase activity in cells infected for 4-5 days with NLRluc recombinants, serial dilutions of inhibitor; class symbols (key in Table 1); read-out: EC50", "protocol": "(§1) MT-2 cells and 293T cells were obtained from the NIH AIDS Research and Reference Reagent Program. MT-2 cells were propagated in RPMI 1640 media supplemented with 10% heat inactivated fetal bovine serum, […]. The 293T cells were propagated in DMEM media supplemented with 10% heat inactivated fetal bovine serum (FBS), 100 units/ml penicillin G and 100 μg/ml streptomycin. The proviral DNA clone of NL4-3 was obtained from the NIH AIDS Research and Reference Reagent Program. A recombinant NL4-3 virus, in which a section of the nef gene from NL4-3 was replaced with the Renilla luciferase gene, was used as a reference virus. In addition, residue Gag P373 was converted to P373S. Briefly, the recombinant virus was prepared by transfection of the altered proviral clone of NL4-3. Transfections were performed in 293T cells using LipofectAMINE PLUS from Invitrogen (Carlsbad, Calif.), according to manufacturer's instruction. The virus was titered in MT-2 cells using luciferase enzyme activity as a marker. Luciferase was quantitated using the Dual Luciferase kit from Promega (Madison, Wis.), with modifications to the manufacturer's protocol. The diluted Passive Lysis solution was pre-mixed with the re-suspended Luciferase Assay Reagent and the re-suspended Stop & Glo Substrate (2:1:1 ratio). Fifty (50) μL of the mixture was added to each aspirated well on assay plates and luciferase activity was measured immediately on a Wallac TriLux (Perkin-Elmer). Antiviral activities of inhibitors toward the recombinant virus were quantified by measuring luciferase activity in cells infected for 4-5 days with NLRluc recombinants in the presence serial dilutions of the inhibitor. Table 1 is the key for the data in Table 2.", "units": {"EC50": "nM"}}
{"compound": "C=C(C)[C@@H]1CC[C@]2(NC(=O)NCCN3CCS(=O)(=O)CC3)CC[C@]3(C)[C@H](CC[C@@H]4[C@@]5(C)CC=C(c6ccc(C(=O)O)cc6)C(C)(C)[C@@H]5CC[C@]43C)[C@@H]12", "note": "[Example 21, 4-((1R,3aS,5aR,5bR,7aR,11aS,11bR,13aR,13bR)-3a-(((2-(1,1-dioxido-4-thiomorpholinyl)ethyl)carbamoyl)amino)-1-isopropenyl-5a,5b,8,8,11a-pentamethyl-2,3,3a,4,5,5a,5b,6,7,7a,8,11,11a,11b,12,13,13a,13b-octadecahydro-1H-cyclopenta[a]chrysen-9-yl)benzoic acid]", "EC50": "< 100"}
{"compound": "C=C(C)[C@@H]1CC[C@]2(NC(=O)NCCCN3CCS(=O)(=O)CC3)CC[C@]3(C)[C@H](CC[C@@H]4[C@@]5(C)CC=C(c6ccc(C(=O)O)cc6)C(C)(C)[C@@H]5CC[C@]43C)[C@@H]12", "note": "[Example 22, 4-((1R,3aS,5aR,5bR,7aR,11aS,11bR,13aR,13bR)-3a-(((3-(1,1-dioxido-4-thiomorpholinyl)propyl)carbamoyl)amino)-1-isopropenyl-5a,5b,8,8,11a-pentamethyl-2,3,3a,4,5,5a,5b,6,7,7a,8,11,11a,11b,12,13,13a,13b-octadecahydro-1H-cyclopenta[a]chrysen-9-yl)benzoic acid]", "EC50": "< 100"}
{"compound": "C=C(C)[C@@H]1CC[C@]2(NC(=O)NCCN(C)CCO)CC[C@]3(C)[C@H](CC[C@@H]4[C@@]5(C)CC=C(c6ccc(C(=O)O)cc6)C(C)(C)[C@@H]5CC[C@]43C)[C@@H]12", "note": "[Example 23, 4-((1R,3aS,5aR,5bR,7aR,11aS,11bR,13aR,13bR)-3a-(3-(2-((2-hydroxyethyl)(methyl)amino)ethyl)ureido)-5a,5b,8,8,11a-pentamethyl-1-(prop-1-en-2-yl)-2,3,3a,4,5,5a,5b,6,7,7a,8,11,11a,11b,12,13,13a,13b-octadecahydro-1H-cyclopenta[a]chrysen-9-yl)benzoic acid]", "EC50": "< 100"}
{"compound": "C=C(C)[C@@H]1CC[C@]2(NC(=O)N(C)CCN(C)C)CC[C@]3(C)[C@H](CC[C@@H]4[C@@]5(C)CC=C(c6ccc(C(=O)O)cc6)C(C)(C)[C@@H]5CC[C@]43C)[C@@H]12", "note": "[Example 24, 4-((1R,3aS,5aR,5bR,7aR,11aS,11bR,13aR,13bR)-3a-(3-(2-(dimethylamino)ethyl)-3-methylureido)-5a,5b,8,8,11a-pentamethyl-1-(prop-1-en-2-yl)-2,3,3a,4,5,5a,5b,6,7,7a,8,11,11a,11b,12,13,13a,13b-octadecahydro-1H-cyclopenta[a]chrysen-9-yl)benzoic acid]", "EC50": "< 100"}
{"compound": "C=C(C)[C@@H]1CC[C@]2(NC(=O)N(C)CCn3ccnc3)CC[C@]3(C)[C@H](CC[C@@H]4[C@@]5(C)CC=C(c6ccc(C(=O)O)cc6)C(C)(C)[C@@H]5CC[C@]43C)[C@@H]12", "note": "[Example 25, 4-((1R,3aS,5aR,5bR,7aR,11aS,11bR,13aR,13bR)-3a-(3-(2-(1H-imidazol-1-yl)ethyl)-3-methylureido)-5a,5b,8,8,11a-pentamethyl-1-(prop-1-en-2-yl)-2,3,3a,4,5,5a,5b,6,7,7a,8,11,11a,11b,12,13,13a,13b-octadecahydro-1H-cyclopenta[a]chrysen-9-yl)benzoic acid]", "EC50": "< 100"}
{"compound": "C=C(C)[C@@H]1CC[C@]2(NC(=O)NCCNC(C)=O)CC[C@]3(C)[C@H](CC[C@@H]4[C@@]5(C)CC=C(c6ccc(C(=O)O)cc6)C(C)(C)[C@@H]5CC[C@]43C)[C@@H]12", "note": "[Example 26, 4-((1R,3aS,5aR,5bR,7aR,11aS,11bR,13aR,13bR)-3a-(3-(2-acetamidoethyl)ureido)-5a,5b,8,8,11a-pentamethyl-1-(prop-1-en-2-yl)-2,3,3a,4,5,5a,5b,6,7,7a,8,11,11a,11b,12,13,13a,13b-octadecahydro-1H-cyclopenta[a]chrysen-9-yl)benzoic acid]", "EC50": "< 100"}
{"compound": "C=C(C)[C@@H]1CC[C@]2(NC(=O)NCCN3CCCCC3=O)CC[C@]3(C)[C@H](CC[C@@H]4[C@@]5(C)CC=C(c6ccc(C(=O)O)cc6)C(C)(C)[C@@H]5CC[C@]43C)[C@@H]12", "note": "[Example 27, 4-((1R,3aS,5aR,5bR,7aR,11aS,11bR,13aR,13bR)-5a,5b,8,8,11a-pentamethyl-3a-(3-(2-(2-oxopiperidin-1-yl)ethyl)ureido)-1-(prop-1-en-2-yl)-2,3,3a,4,5,5a,5b,6,7,7a,8,11,11a,11b,12,13,13a,13b-octadecahydro-1H-cyclopenta[a]chrysen-9-yl)benzoic acid]", "EC50": "< 100"}
{"compound": "C=C(C)[C@@H]1CC[C@]2(NC(=O)N(CCCN(C)C)CCCN(C)C)CC[C@]3(C)[C@H](CC[C@@H]4[C@@]5(C)CC=C(c6ccc(C(=O)O)cc6)C(C)(C)[C@@H]5CC[C@]43C)[C@@H]12", "note": "[Example 30, 4-((1R,3aS,5aR,5bR,7aR,11aS,11bR,13aR,13bR)-3a-(3,3-bis(3-(dimethylamino)propyl)ureido)-5a,5b,8,8,11a-pentamethyl-1-(prop-1-en-2-yl)-2,3,3a,4,5,5a,5b,6,7,7a,8,11,11a,11b,12,13,13a,13b-octadecahydro-1H-cyclopenta[a]chrysen-9-yl)benzoic acid]", "EC50": "< 100"}
{"compound": "C=C(C)[C@@H]1CC[C@]2(NC(=O)NCC(=O)N(C)C)CC[C@]3(C)[C@H](CC[C@@H]4[C@@]5(C)CC=C(c6ccc(C(=O)O)cc6)C(C)(C)[C@@H]5CC[C@]43C)[C@@H]12", "note": "[Example 31, 4-((1R,3aS,5aR,5bR,7aR,11aS,11bR,13aR,13bR)-3a-(3-(2-(dimethylamino)-2-oxoethyl)ureido)-5a,5b,8,8,11a-pentamethyl-1-(prop-1-en-2-yl)-2,3,3a,4,5,5a,5b,6,7,7a,8,11,11a,11b,12,13,13a,13b-octadecahydro-1H-cyclopenta[a]chrysen-9-yl)benzoic acid]", "EC50": "< 100"}
{"compound": "C=C(C)[C@@H]1CC[C@]2(NC(=O)NCCC(=O)O)CC[C@]3(C)[C@H](CC[C@@H]4[C@@]5(C)CC=C(c6ccc(C(=O)O)cc6)C(C)(C)[C@@H]5CC[C@]43C)[C@@H]12", "note": "[Example 33, 4-((1R,3aS,5aR,5bR,7aR,11aS,11bR,13aR,13bR)-3a-(3-(2-carboxyethyl)ureido)-5a,5b,8,8,11a-pentamethyl-1-(prop-1-en-2-yl)-2,3,3a,4,5,5a,5b,6,7,7a,8,11,11a,11b,12,13,13a,13b-octadecahydro-1H-cyclopenta[a]chrysen-9-yl)benzoic acid]", "EC50": "< 100"}
{"tested_on": "recombinant NL4-3 virus (Renilla luciferase in nef, Gag P373S; NLRluc) in MT-2 cells", "assay": "whole plant or invertebrate", "format": "cell-based, HIV", "conditions": "Renilla, NL43, luciferase activity in cells infected for 4-5 days with NLRluc recombinants, serial dilutions of inhibitor; numeric values; read-out: EC50", "protocol": "as §1", "units": {"EC50": "nM"}}
{"compound": "C=C(C)[C@@H]1CC[C@]2(NC(=O)N[C@H](CO)C(=O)O)CC[C@]3(C)[C@H](CC[C@@H]4[C@@]5(C)CC=C(c6ccc(C(=O)O)cc6)C(C)(C)[C@@H]5CC[C@]43C)[C@@H]12", "note": "[Example 20, 4-((1R,3aS,5aR,5bR,7aR,11aS,11bR,13aR,13bR)-3a-(3-((R)-1-carboxy-2-hydroxyethyl)ureido)-5a,5b,8,8,11a-pentamethyl-1-(prop-1-en-2-yl)-2,3,3a,4,5,5a,5b,6,7,7a,8,11,11a,11b,12,13,13a,13b-octadecahydro-1H-cyclopenta[a]chrysen-9-yl)benzoic acid]", "EC50": 400}
{"compound": "C=C(C)[C@@H]1CC[C@]2(NC(=O)NCCN3CCCC3=O)CC[C@]3(C)[C@H](CC[C@@H]4[C@@]5(C)CC=C(c6ccc(C(=O)O)cc6)C(C)(C)[C@@H]5CC[C@]43C)[C@@H]12", "note": "[Example 28, 4-((1R,3aS,5aR,5bR,7aR,11aS,11bR,13aR,13bR)-5a,5b,8,8,11a-pentamethyl-3a-(3-(2-(2-oxopyrrolidin-1-yl)ethyl)ureido)-1-(prop-1-en-2-yl)-2,3,3a,4,5,5a,5b,6,7,7a,8,11,11a,11b,12,13,13a,13b-octadecahydro-1H-cyclopenta[a]chrysen-9-yl)benzoic acid]", "EC50": 4}
{"compound": "C=C(C)[C@@H]1CC[C@]2(NC(=O)NCCCN3CCCC3=O)CC[C@]3(C)[C@H](CC[C@@H]4[C@@]5(C)CC=C(c6ccc(C(=O)O)cc6)C(C)(C)[C@@H]5CC[C@]43C)[C@@H]12", "note": "[Example 29, 4-((1R,3aS,5aR,5bR,7aR,11aS,11bR,13aR,13bR)-5a,5b,8,8,11a-pentamethyl-3a-(3-(3-(2-oxopyrrolidin-1-yl)propyl)ureido)-1-(prop-1-en-2-yl)-2,3,3a,4,5,5a,5b,6,7,7a,8,11,11a,11b,12,13,13a,13b-octadecahydro-1H-cyclopenta[a]chrysen-9-yl)benzoic acid]", "EC50": 10}
{"compound": "C=C(C)[C@@H]1CC[C@]2(NC(=O)N(C)C)CC[C@]3(C)[C@H](CC[C@@H]4[C@@]5(C)CC=C(c6ccc(C(=O)O)cc6)C(C)(C)[C@@H]5CC[C@]43C)[C@@H]12", "note": "[Example 32, 4-((1R,3aS,5aR,5bR,7aR,11aS,11bR,13aR,13bR)-3a-(3,3-dimethylureido)-5a,5b,8,8,11a-pentamethyl-1-(prop-1-en-2-yl)-2,3,3a,4,5,5a,5b,6,7,7a,8,11,11a,11b,12,13,13a,13b-octadecahydro-1H-cyclopenta[a]chrysen-9-yl)benzoic acid]", "EC50": 10}
